Where a name gives a salt, the structure may show the parent alone. Read-outs that look alike come from different tables or passages of the source.
Legend:
NRF2 = test: 3×ARE-LUC luciferase reporter assay; format: cell-based, human; conditions: for fold induction at 20 µM / fold induction at 6 µM / fold induction at 60 µM: Homo sapiens, 16 h; for NRF2 induction, CD (concentration needed to double luciferase expression): 3×ARE-LUC; for activation of the NRF2 reporter: in words, 6, 20 and 60 μM
Description: Transient transfections of HEK293T cells were performed with the expression vectors for TK-Renilla (Promega, Madison, […]) and the expression vector ARE-LUC (Dr. J. Alam, Dept. of Molecular Genetics, Ochsner Clinic Foundation, New Orleans, LA). Cells were seeded on 24-well plates (75,000 cells per well), cultured for 16 h, and transfected using calcium phosphate. Eight hours after transfections, cells were treated with 3 different concentrations of the compounds (6, 20, and 60 μM). […] After 16 h, the cells were lysed and assayed with a dual-luciferase assay system (Promega) according to the manufacturer’s instructions. Relative light units were measured in a GloMax 96 microplate luminometer with dual injectors (Promega).

ROCK-II (ROKa) = ROCK-II (ROKa) (Rattus norvegicus, UniProt Q62868); test: ROCK inhibition studies (33P-ATP, Long S6 substrate peptide); format: biochemical; conditions: for remaining activity at 10 µM: 0.5 h, supplementary CSV, read-out: ROCK2 activity @ 10microM; for IC50: Table 3, read-out: ROCK2 inhibition IC50; for ROCK2 inhibition potency compared with fasudil: in words
Description: ROCK-II (ROKa) (5–20 mU diluted in 50 mM Tris pH 7.5, 0.1 mM EGTA, 0.1% 2-mercaptoethanol, and 1 mg/mL BSA) was assayed against the Long S6 substrate peptide ([…]) in a final volume of 25.5 μL containing 50 mM Tris pH 7.5, 0.1 mM EGTA, 30 μM Long S6 substrate peptide, 10 mM magnesium acetate, and 0.02 mM [33P-g-ATP] (50–1000 cpm/pmol) and incubated for 30 min at room temperature. Assays were stopped by addition of 5 μL of 0.5 M (3%) orthophosphoric acid and then harvested onto P81 Unifilter plates with a wash buffer of 50 mM orthophosphoric acid.

[1] = DPPH radical scavenging assay; format: physicochemical; conditions: for EC50: 80% MeOH, 30 min, 517 nm, read-out: Radical scavenging activity EC50 (DPPH method); for IC50: supplementary CSV
Description: The antioxidant activity was determined by the 2,2-diphenyl-1-picrylhydrazyl hydrate (DPPH) assay.[65]−[67] All the measurements were performed in an 80% MeOH solution, with the final reaction volume being 3 mL. A stock of DPPH solution in DMSO (10^–2 M) was prepared and stored at −20 °C, and the same procedure was performed with the antioxidant solution. Then, the DPPH stock solution was diluted to 2 mL with a final concentration of 150 μM (final volume of 3 mL and final concentration of 100 μM). The antioxidant stock was sequentially diluted to 1 mL at 3, 9, 30, 90, and 300 μM (final volume of 3 mL and final concentrations of 1, 3, 10, 30, and 100 μM). The mixture was incubated at room temperature for 30 min. Once this time had passed, the absorbance was measured in a spectrophotometer at 517 nm. Trolox, caffeic acid, and ferulic acid were used as a standard (1, 3, 10, 30, and 100 μM final concentrations). A blank using 80% MeOH solution instead of the corresponding antioxidant was used in each assay. Two independent measurements of each sample were performed. Data were processed using Origin software, and sigmoidal fitting according to the DoseResp function was performed to extrapolate the IC50 (μM) of each antioxidant.

MTT viability assay = format: cell-based, human; conditions: human, HEK293T cells, HEK293T, 16 h, read-out: Cell viability (MTT)
Description: (§1) HEK293T cells were plated in 24-well culture plates (75,000 cells/well) and incubated in a CO2 incubator. The next day, treatment was given according to the experimental requirement. Sixteen hours later, 50 μL of MTT solutions from the stock (5 mg/mL) was added, and cells were incubated in a CO2 incubator in the dark for 2 h. The medium was removed, and formazan crystals formed by the cells were dissolved using 500 μL of DMSO followed by transfer in 96-well plates. The absorbance was read at a 570 nm wavelength on a multiwell plate reader.[70]

HEK293T cells = test: MTT viability assay; format: cell-based, human; conditions: 20 µM, Table S3
Description: as §1

[2] = 20 microM, supplementary CSV, read-out: NRF2 induction @ 20 microM (fold change)
[3] = HEK-293T, HEK293T, read-out: Luciferase assay response
[4] = HEK-293T, 20 µM, HEK293T, read-out: Luciferase assay response

Chain of ROCK-II (ROKa) (Q62868 2-543 limits assumed): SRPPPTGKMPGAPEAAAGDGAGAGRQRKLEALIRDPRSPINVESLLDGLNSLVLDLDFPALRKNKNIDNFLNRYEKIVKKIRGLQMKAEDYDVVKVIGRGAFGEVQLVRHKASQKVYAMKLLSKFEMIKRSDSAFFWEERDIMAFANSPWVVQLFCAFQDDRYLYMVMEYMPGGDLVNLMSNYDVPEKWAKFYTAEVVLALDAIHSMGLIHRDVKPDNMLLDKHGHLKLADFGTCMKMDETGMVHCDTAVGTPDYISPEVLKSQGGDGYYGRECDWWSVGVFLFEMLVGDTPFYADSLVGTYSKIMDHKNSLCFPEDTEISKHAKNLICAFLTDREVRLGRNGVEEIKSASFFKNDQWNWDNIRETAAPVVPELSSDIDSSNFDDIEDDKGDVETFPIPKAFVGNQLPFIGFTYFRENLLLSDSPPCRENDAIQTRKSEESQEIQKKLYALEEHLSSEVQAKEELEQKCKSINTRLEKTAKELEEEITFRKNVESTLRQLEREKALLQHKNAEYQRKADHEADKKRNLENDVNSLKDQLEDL

melting point [°C]	remaining activity at 10 µM (ROCK-II (ROKa)) [%]	IC50 (ROCK-II (ROKa)) [µM]	EC50 [1] [µM]	IC50 [1] [µM]	activation of the NRF2 reporter (NRF2)	SMILES	fold induction at 20 µM (NRF2; [2])	fold induction at 6 µM (NRF2; [3])	fold induction at 20 µM (NRF2; [4])	fold induction at 60 µM (NRF2; [3])	ROCK2 inhibition potency compared with fasudil (ROCK-II (ROKa))	viability at 16 h, 20 µM (MTT viability assay) [%]	viability at 16 h, 60 µM (MTT viability assay) [%]	MTT (%) (HEK293T cells)	NRF2 induction, CD (concentration needed to double luciferase expression) (NRF2; HEK293T) [µM]
161 to 162	13.7 ± 1	0.79	9.93	11.9 ± 4.9		O=C(/C=C/c1ccc(O)c(O)c1)N1CCN(S(=O)(=O)c2cccc3cnccc23)CC1 [Compound 1a, 3-(3,4-Dihydroxyphenyl)-1-(4-(isoquinolin-5-ylsulfonyl)piperazin-1-yl)prop-2-en-1-one]	0.8 ± 0.02	0.7 ± 0.06	0.8 ± 0.02	1.2 ± 0.08	potency similar to the reference compound	90.9 ± 1.63	100.7 ± 0.999	< 20	
158 to 159	32.6 ± 10.3	0.32	10.1	11.9 ± 3	dose-dependent activation	O=C(CCc1ccc(O)c(O)c1)N1CCN(S(=O)(=O)c2cccc3cnccc23)CC1 [Compound 1c, 3-(3,4-Dihydroxyphenyl)-1-(4-(isoquinolin-5-ylsulfonyl)piperazin-1-yl)propan-1-one]	2.2 ± 0.09	1.7 ± 0.09	2.2 ± 0.09	5.8 ± 0.23	potency similar to the reference compound	104 ± 1.2	104.8 ± 0.434		15
> 230	47 ± 15.1	2.33	6.42			COc1cc(/C=C/C(=O)N2CCN(S(=O)(=O)c3cccc4cnccc34)CC2)ccc1O [Compound 1e, 3-(4-Hydroxy-3-methoxyphenyl)-1-(4-(isoquinolin-5-ylsulfonyl)piperazin-1-yl)prop-2-en-1-one]	1.1 ± 0.16	1.2 ± 0.11	1.1 ± 0.16	1.2 ± 0.14		60.5 ± 2.73	55.9 ± 1.08		
156 to 157	53 ± 8.8	> 10	10.3			COc1cc(CCC(=O)N2CCN(S(=O)(=O)c3cccc4cnccc34)CC2)ccc1O [Compound 1g, 3-(4-Hydroxy-3-methoxyphenyl)-1-(4-(isoquinolin-5-ylsulfonyl)piperazin-1-yl)propan-1-one]	0.8 ± 0.04	1 ± 0.01	0.8 ± 0.04	1.5 ± 0.22		93.7 ± 2.2	87.5 ± 2.32		
				12 ± 2.3		Cc1c(C)c2c(c(C)c1O)CCC(C)(C(=O)O)O2 (centres unmarked) [Trolox, reference compound]									
			12.1			O=C(O)/C=C/c1ccc(O)c(O)c1 [caffeic acid, reference compound]									
			22.8			COc1cc(/C=C/C(=O)O)ccc1O [ferulic acid, reference compound]									

The remaining lines, values behind:

SMILES	melting point [°C]	remaining activity at 10 µM (ROCK-II (ROKa)) [%]	IC50 (ROCK-II (ROKa)) [µM]	EC50 [1] [µM]	IC50 [1] [µM]	activation of the NRF2 reporter (NRF2)	fold induction at 20 µM (NRF2; [2])	fold induction at 6 µM (NRF2; [3])	fold induction at 20 µM (NRF2; [4])	fold induction at 60 µM (NRF2; [3])	ROCK2 inhibition potency compared with fasudil (ROCK-II (ROKa))	viability at 16 h, 20 µM (MTT viability assay) [%]	viability at 16 h, 60 µM (MTT viability assay) [%]	MTT (%) (HEK293T cells)	NRF2 induction, CD (concentration needed to double luciferase expression) (NRF2; HEK293T) [µM]
O=C(/C=C/c1ccc(O)c(O)c1)N1CCCN(S(=O)(=O)c2cccc3cnccc23)CC1 [Compound 1b, 3-(3,4-Dihydroxyphenyl)-1-(4-(isoquinolin-5-ylsulfonyl)-1,4-diazepan-1-yl)prop-2-en-1-one]		7.8 ± 1	2.13	10	9.9 ± 1.4	dose-dependent activation	3.1 ± 0.04		3.1 ± 0.04	4.1 ± 0.06		96.9 ± 1.13	84.7 ± 1.83		12
COc1cc(/C=C/C(=O)N2CCCN(S(=O)(=O)c3cccc4cnccc34)CC2)ccc1O [Compound 1f, 3-(4-Hydroxy-3-methoxyphenyl)-1-(4-(isoquinolin-5-ylsulfonyl)-1,4-diazepan-1-yl)prop-2-en-1-one]		30.3 ± 7.4	2.61	9.61			0.8 ± 0.02	0.7 ± 0.06	0.8 ± 0.02	1.2 ± 0.08		93.9 ± 2.27	77.9 ± 3.9	< 20	
COc1cc(CCC(=O)N2CCCN(S(=O)(=O)c3cccc4cnccc34)CC2)ccc1O [Compound 1h, 3-(4-Hydroxy-3-methoxyphenyl)-1-(4-(isoquinolin-5-ylsulfonyl)-1,4-diazepan-1-yl)propan-1-one]		27.4 ± 1.4	0.9	12			0.9 ± 0.02	1.2 ± 0.09	0.9 ± 0.02	1.2 ± 0.03		99.4 ± 1.78	88.2 ± 2.43		
COC(=O)/C=C/C(=O)OC [DMF, dimethyl fumarate, reference compound]							4.9 ± 0.35		4.9 ± 0.35			90.4 ± 6.96	92.21 ± 0.462		
C[S+]([O-])CCCCN=C=S (centres unmarked) [SFN, sulforaphane, reference compound]								4 ± 0.08							
O=S(=O)(c1cccc2cnccc12)N1CCCNCC1 [fasudil, 5-((1,4-Diazepan-1-yl)sulfonyl)isoquinoline, reference compound]						low activity	1 ± 0.06	1.3 ± 0.21	1 ± 0.06	2.9 ± 0.49		92.1 ± 3.71	83.43 ± 0.715		

From publication PMC9132363 (Journal of Medicinal Chemistry, 2022)
